The Kinase Knowledgebase extract (Sharma et al. 2016)

Molecular target: ROCK2 (human) (UniProt O75116)
Experiment: Inhibition of ROCK2 Kinase Activity

Chain of ROCK2 (human) (O75116 whole entry, looked up): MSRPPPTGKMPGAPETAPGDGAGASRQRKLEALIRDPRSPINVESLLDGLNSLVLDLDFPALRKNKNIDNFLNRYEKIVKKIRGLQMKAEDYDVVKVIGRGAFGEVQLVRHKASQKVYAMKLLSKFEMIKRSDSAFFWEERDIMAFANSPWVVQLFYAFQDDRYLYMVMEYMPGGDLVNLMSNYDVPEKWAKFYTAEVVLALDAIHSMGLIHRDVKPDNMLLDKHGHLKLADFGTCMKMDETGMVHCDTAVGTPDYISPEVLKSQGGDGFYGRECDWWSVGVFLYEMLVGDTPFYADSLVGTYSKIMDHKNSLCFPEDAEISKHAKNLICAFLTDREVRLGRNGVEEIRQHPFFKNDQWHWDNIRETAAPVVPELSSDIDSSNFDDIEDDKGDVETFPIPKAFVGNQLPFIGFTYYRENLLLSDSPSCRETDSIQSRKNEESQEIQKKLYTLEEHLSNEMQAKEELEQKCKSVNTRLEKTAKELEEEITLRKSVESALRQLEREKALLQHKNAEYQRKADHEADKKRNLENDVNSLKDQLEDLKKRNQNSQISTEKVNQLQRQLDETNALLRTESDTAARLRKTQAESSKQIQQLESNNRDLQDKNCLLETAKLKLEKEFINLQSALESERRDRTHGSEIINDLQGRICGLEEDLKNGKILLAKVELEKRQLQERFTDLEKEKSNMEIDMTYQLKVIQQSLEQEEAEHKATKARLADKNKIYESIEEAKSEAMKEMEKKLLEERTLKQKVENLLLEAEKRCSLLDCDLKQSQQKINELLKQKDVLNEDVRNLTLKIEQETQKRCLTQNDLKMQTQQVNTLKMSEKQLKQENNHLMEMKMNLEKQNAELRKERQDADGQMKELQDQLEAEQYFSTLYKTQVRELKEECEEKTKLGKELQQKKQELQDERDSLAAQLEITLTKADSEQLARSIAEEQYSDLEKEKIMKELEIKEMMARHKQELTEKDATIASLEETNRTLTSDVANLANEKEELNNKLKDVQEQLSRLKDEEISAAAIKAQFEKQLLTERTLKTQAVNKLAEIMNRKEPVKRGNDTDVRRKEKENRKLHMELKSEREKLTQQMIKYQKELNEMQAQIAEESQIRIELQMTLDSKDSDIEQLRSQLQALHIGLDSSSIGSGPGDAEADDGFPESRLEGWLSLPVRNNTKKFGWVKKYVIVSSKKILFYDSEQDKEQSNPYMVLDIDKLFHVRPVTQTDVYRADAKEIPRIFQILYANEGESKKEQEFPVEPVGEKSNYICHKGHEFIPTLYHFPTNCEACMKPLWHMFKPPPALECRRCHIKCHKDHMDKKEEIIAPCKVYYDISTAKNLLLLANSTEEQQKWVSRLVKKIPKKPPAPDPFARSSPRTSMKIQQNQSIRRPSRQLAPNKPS

Structure (SMILES)	IC50
COC(=O)c1ccc(C(=O)NCc2nc(-c3c[nH]c4ncccc34)n[nH]2)cc1	> 5 µM
O=C(C=Cc1ccccc1F)NCc1nc(-c2ccncc2)n[nH]1	> 5 µM
CC(C)(C)OC(=O)NC(Cc1ccc(O)cc1)C(=O)NCc1nc(-c2ccncc2)n[nH]1 (configuration not stated)	> 5 µM
c1ccc2c(NCc3nc(-c4ccncc4)n[nH]3)n[nH]c2c1	> 5 µM
O=C(NCc1nc(-c2c[nH]c3ncccc23)n[nH]1)c1cc([N+](=O)[O-])ccc1F	> 5 µM
O=C(NCc1nc(-c2ccncc2)n[nH]1)C1CCCCC1	> 5 µM
Cc1ccc(F)cc1C(=O)NCc1nc(-c2ccncc2)n[nH]1	> 5 µM
O=C(NCc1nc(-c2c[nH]c3ncccc23)n[nH]1)c1cc(Cl)ccc1Cl	> 5 µM
Cc1cccc(C(=O)NCc2nc(-c3ccncc3)c[nH]2)c1O	≤ 5 µM
COC1=C(O)C=CC(C=CC(=O)NCc2nc(-c3c[nH]c4ncccc34)n[nH]2)=CC1	> 5 µM
Cc1ccccc1OCC(=O)NCc1nc(-c2ccncc2)n[nH]1	> 5 µM
Cc1ccccc1OCC(=O)NCc1nc(-c2c[nH]c3ncccc23)n[nH]1	> 5 µM
CCOc1ccccc1C(=O)NCc1nc(-c2ccncc2)n[nH]1	> 5 µM
O=C(NCc1nc(-c2c[nH]c3ncccc23)n[nH]1)c1cscn1	> 5 µM
O=C(C=Cc1cccc(O)c1)NCc1nc(-c2c[nH]c3ncccc23)n[nH]1	> 5 µM
O=C(NCc1nc(-c2ccncc2)n[nH]1)c1cc(F)c(F)cc1Cl	> 5 µM
CCC(=O)C(=O)NCc1nc(-c2c[nH]c3ncccc23)n[nH]1	> 5 µM
O=C(NCc1nc(-c2ccncc2)n[nH]1)c1cccc(O)c1	> 5 µM
O=C(NCc1nc(-c2ccncc2)n[nH]1)c1ccc([N+](=O)[O-])cc1Cl	> 5 µM
O=C(NCc1nc(-c2ccncc2)n[nH]1)c1ccc(F)c([N+](=O)[O-])c1	> 5 µM
O=C(NCc1nc(-c2ccncc2)n[nH]1)c1cccc([N+](=O)[O-])c1	> 5 µM

Structure (SMILES)	IC50
O=C(NCc1nc(-c2c[nH]c3ncccc23)n[nH]1)c1cc2ccccc2o1	> 5 µM
Cc1ccc([N+](=O)[O-])c(C(=O)NCc2nc(-c3ccncc3)n[nH]2)c1	> 5 µM
O=C(Cc1cccc(O)c1)NCc1nc(-c2ccncc2)n[nH]1	> 5 µM
O=C(NCc1nc(-c2c[nH]c3ncccc23)n[nH]1)c1ccccc1C(=O)c1ccc(F)cc1	> 5 µM
O=C(NCc1nc(-c2c[nH]c3ncccc23)n[nH]1)c1cc(O)ccc1[N+](=O)[O-]	> 5 µM
CS(=O)(=O)Nc1ccccc1C(=O)NCc1nc(-c2ccncc2)n[nH]1	> 5 µM
COc1cc(C(=O)NCc2nc(-c3c[nH]c4ncccc34)n[nH]2)c([N+](=O)[O-])cc1OC	> 5 µM
O=C(C=Cc1ccc(Cl)cc1)NCc1nc(-c2ccncc2)n[nH]1	> 5 µM
O=C(NCc1nc(-c2c[nH]c3ncccc23)n[nH]1)c1csc2ccccc12	> 5 µM
COc1ccc(C=CC(=O)NCc2nc(-c3ccncc3)n[nH]2)cc1O	> 5 µM
O=C(NCc1nc(-c2ccncc2)n[nH]1)C1CCc2ccccc21 (configuration not stated)	> 5 µM
COc1cc(OC)cc(C(=O)NCc2nc(-c3ccncc3)n[nH]2)c1	> 5 µM
Cc1cc(C(=O)NCc2nc(-c3ccncc3)n[nH]2)cc(Cl)n1	> 5 µM
Cc1c(C(=O)NCc2nc(-c3c[nH]c4ncccc34)n[nH]2)oc2ccccc12	> 5 µM
CC(=O)Oc1ccc(C(=O)NCc2nc(-c3c[nH]c4ncccc34)n[nH]2)cc1	≤ 5 µM
O=C(NCc1nc(-c2c[nH]c3ncccc23)n[nH]1)c1c(F)cccc1Cl	> 5 µM
O=C(NCc1nc(-c2ccncc2)n[nH]1)c1cccc2ccccc12	> 5 µM
CC(C)Oc1ccc(C(=O)NCc2nc(-c3ccncc3)n[nH]2)cc1	> 5 µM
O=C(NCc1nc(-c2c[nH]c3ncccc23)n[nH]1)c1cccc(Br)c1	> 5 µM
O=C(NCc1nc(-c2c[nH]c3ncccc23)n[nH]1)c1ccc(Cl)nc1	> 5 µM
Cc1c(C(=O)NCc2nc(-c3ccncc3)n[nH]2)cccc1[N+](=O)[O-]	> 5 µM
